# Results from patent US10758534B2 (Vertex Pharmaceuticals Incorporated, priority 2014, dated 2020).
# Target: T1, F508del (Homo sapiens, UniProt P13569, DEL508-508)
# T1 construct: expressed in transfected cells
# Assay: Protocol 2: FRET membrane potential optical assay (VIPR), identification of correction compounds
# Assay type: cell-based
# Details: F508del CFTR modulator activity; compounds of Table 1; read-out: EC30
# In short: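 FRET read-out (CC2-DMPE donor, DiSBAC2(3) voltage-sensitive acceptor) of membrane depolarization on VIPR II. Corrector candidates incubated 16 hrs at 37° C. with NIH3T3 cells expressing F508del; temperature correction at 27° C. as positive control; stimulation by 10 μM forskolin, 20 μM genistein, chloride-free gluconate bath.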
# T1 sequence (P13569 with tags, fused parts or gaps DEL508-508): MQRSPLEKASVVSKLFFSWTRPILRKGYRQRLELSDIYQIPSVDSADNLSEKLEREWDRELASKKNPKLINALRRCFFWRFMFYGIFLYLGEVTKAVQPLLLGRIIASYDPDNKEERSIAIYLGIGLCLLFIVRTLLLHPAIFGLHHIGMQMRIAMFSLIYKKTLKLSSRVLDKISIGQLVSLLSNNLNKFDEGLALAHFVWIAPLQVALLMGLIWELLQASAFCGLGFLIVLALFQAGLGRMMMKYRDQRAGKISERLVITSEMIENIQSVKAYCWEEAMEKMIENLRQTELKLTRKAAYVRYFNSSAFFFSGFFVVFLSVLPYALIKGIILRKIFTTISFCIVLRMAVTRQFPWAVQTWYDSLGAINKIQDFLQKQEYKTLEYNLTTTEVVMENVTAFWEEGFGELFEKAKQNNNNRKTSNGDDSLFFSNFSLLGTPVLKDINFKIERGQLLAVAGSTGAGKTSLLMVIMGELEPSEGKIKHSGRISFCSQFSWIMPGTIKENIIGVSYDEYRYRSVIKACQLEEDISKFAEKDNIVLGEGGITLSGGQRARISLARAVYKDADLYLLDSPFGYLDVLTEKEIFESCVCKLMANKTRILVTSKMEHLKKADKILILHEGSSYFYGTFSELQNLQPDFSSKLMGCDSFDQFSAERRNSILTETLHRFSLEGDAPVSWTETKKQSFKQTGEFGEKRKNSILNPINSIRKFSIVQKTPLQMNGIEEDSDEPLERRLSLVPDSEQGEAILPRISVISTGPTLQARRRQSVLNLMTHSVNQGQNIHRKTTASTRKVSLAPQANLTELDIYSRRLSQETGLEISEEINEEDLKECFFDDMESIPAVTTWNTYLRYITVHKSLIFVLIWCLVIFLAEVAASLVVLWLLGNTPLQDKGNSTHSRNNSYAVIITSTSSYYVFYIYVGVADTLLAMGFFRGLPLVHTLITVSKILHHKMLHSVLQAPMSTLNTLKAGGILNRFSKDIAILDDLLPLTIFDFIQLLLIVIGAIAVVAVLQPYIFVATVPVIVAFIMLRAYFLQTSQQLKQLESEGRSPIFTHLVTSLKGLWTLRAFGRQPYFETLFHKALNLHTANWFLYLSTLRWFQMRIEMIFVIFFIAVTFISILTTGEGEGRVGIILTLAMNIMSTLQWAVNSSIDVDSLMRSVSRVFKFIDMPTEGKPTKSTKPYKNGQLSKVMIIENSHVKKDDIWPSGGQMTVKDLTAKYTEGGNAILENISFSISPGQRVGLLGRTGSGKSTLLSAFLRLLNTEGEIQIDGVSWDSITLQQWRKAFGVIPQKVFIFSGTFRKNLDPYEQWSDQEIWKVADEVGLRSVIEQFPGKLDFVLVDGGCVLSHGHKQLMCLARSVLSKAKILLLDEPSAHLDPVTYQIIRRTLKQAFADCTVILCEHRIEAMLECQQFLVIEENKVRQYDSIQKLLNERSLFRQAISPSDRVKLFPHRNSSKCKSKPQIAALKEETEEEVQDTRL
row,SMILES,EC30 [nM]
1,"CC1CN(c2ncccc2C(=O)NS(=O)(=O)c2cccc(Nc3ccc(Cl)cn3)n2)C(C)(C)C1 (stereo not shown) [Compound 2656, N—[[6-[(5-chloro-2-pyridyl)amino]-2-pyridyl]sulfonyl]-2-(2,2,4-trimethylpyrrolidin-1-yl)pyridine-3-carboxamide]",< 3000
2,"CCOC(=O)C1CCN(c2cccc(S(=O)(=O)NC(=O)c3cccnc3N3CC(C)CC3(C)C)n2)CC1 (stereo not shown) [Compound 2488, ethyl 1-[6-[[2-(2,2,4-trimethylpyrrolidin-1-yl)pyridine-3-carbonyl]sulfamoyl]-2-pyridyl]piperidine-4-carboxylate]",< 3000
3,"CC(C)COc1cc(F)cc(-c2ccc(C(=O)NS(=O)(=O)N3C[C@@H](O)[C@H](O)C3)c(N3C[C@@H](C)CC3(C)C)n2)c1 [Compound 2534, N-[(3R,4R)-3,4-dihydroxypyrrolidin-1-yl]sulfonyl-6-(3-fluoro-5-isobutoxy-phenyl)-2-[(4S)-2,2,4-trimethylpyrrolidin-1-yl]pyridine-3-carboxamide]",< 3000
4,"C[C@@H]1CN(c2nc(C3CCCCO3)ccc2C(=O)NS(=O)(=O)c2cccnc2N)C(C)(C)C1 (stereo partly drawn) [Compound 2351, N-[(2-amino-3-pyridyl)sulfonyl]-6-tetrahydropyran-2-yl-2-[(4S)-2,2,4-trimethylpyrrolidin-1-yl]pyridine-3-carboxamide]",< 3000
5,"CC1CN(c2ncccc2C(=O)NS(=O)(=O)c2cccc(OCc3cccc(-n4cccc4)c3)n2)C(C)(C)C1 (stereo not shown) [Compound 2600, N—[[6-[(3-pyrrol-1-ylphenyl)methoxy]-2-pyridyl]sulfonyl]-2-(2,2,4-trimethylpyrrolidin-1-yl)pyridine-3-carboxamide]",< 3000
6,"CCC(COC)Nc1cccc(S(=O)(=O)NC(=O)c2cccnc2N2CC(C)CC2(C)C)n1 (stereo not shown) [Compound 2221, N—[[6-[1-(methoxymethyl)propylamino]-2-pyridyl]sulfonyl]-2-(2,2,4-trimethylpyrrolidin-1-yl)pyridine-3-carboxamide]",3000 to 10000
7,"CCCCCCN1CCN(c2cccc(S(=O)(=O)NC(=O)c3cccnc3N3CC(C)CC3(C)C)n2)CC1 (stereo not shown) [Compound 2423, N—[[6-(4-hexylpiperazin-1-yl)-2-pyridyl]sulfonyl]-2-(2,2,4-trimethylpyrrolidin-1-yl)pyridine-3-carboxamide]",< 3000
8,"Cc1ccc(CCNc2cccc(S(=O)(=O)NC(=O)c3cccnc3N3CC(C)CC3(C)C)n2)cc1 (stereo not shown) [Compound 2502, N—[[6-[2-(p-tolyl)ethylamino]-2-pyridyl]sulfonyl]-2-(2,2,4-trimethylpyrrolidin-1-yl)pyridine-3-carboxamide]",< 3000
9,"Cc1cccc(-c2ccc(C(=O)NS(=O)(=O)c3ccc[nH]c3=O)c(N3C[C@@H](C)CC3(C)C)n2)c1 [Compound 2424, 6-(m-tolyl)-N-[(2-oxo-1H-pyridin-3-yl)sulfonyl]-2-[(4S)-2,2,4-trimethylpyrrolidin-1-yl]pyridine-3-carboxamide]",< 3000
10,"CC1CN(c2ncccc2C(=O)NS(=O)(=O)c2cccc(Oc3ccccc3C(C)C)n2)C(C)(C)C1 (stereo not shown) [Compound 2486, N—[[6-(2-isopropylphenoxy)-2-pyridyl]sulfonyl]-2-(2,2,4-trimethylpyrrolidin-1-yl)pyridine-3-carboxamide]",< 3000
11,"COc1cc(F)c(F)cc1-c1ccc(C(=O)NS(=O)(=O)c2cccnc2N)c(N2C[C@@H](C)CC2(C)C)n1 [Compound 2334, N-[(2-amino-3-pyridyl)sulfonyl]-6-(4,5-difluoro-2-methoxy-phenyl)-2-[(4S)-2,2,4-trimethylpyrrolidin-1-yl]pyridine-3-carboxamide]",< 3000

# Same assay, conditions: Table 3; compounds of Table 1 as modulators of CFTR activity; protocol not stated
row,SMILES,EC30
1,"Cc1cc(C)c(Oc2nc(C(C)(C)C)ccc2C(=O)NS(=O)(=O)c2cccc(O)c2)c(C)c1 [Compound 47, 6-tert-butyl-N-(3-hydroxyphenyl)sulfonyl-2-(2,4,6-trimethylphenoxy)pyridine-3-carboxamide]",+++ (“+++” means <3 uM)
2,"Cc1cc(C)c(Cn2c(C(=O)NS(=O)(=O)c3cccc(N)c3)cc3c(C)cccc32)c(C)c1 [Compound 144, N-(3-aminophenyl)sulfonyl-4-methyl-1-[(2,4,6-trimethylphenyl)methyl]indole-2-carboxamide]",+++ (“+++” means <3 uM)
3,"Cc1nc(OCC(C)C)ccc1-c1ccc(C(=O)NS(=O)(=O)c2cccc(N)n2)c(N2CC(C)CC2(C)C)n1 (stereo not shown) [Compound 616, N-[(6-amino-2-pyridyl)sulfonyl]-6-(6-isobutoxy-2-methyl-3-pyridyl)-2-(2,2,4-trimethylpyrrolidin-1-yl)pyridine-3-carboxamide]",+++ (“+++” means <3 uM)
4,"Cc1cc(C)c(Oc2nc(C(C)(C)C)ccc2C(=O)NS(=O)(=O)c2nc(N)cs2)c(C)c1 [Compound 265, N-(4-aminothiazol-2-yl)sulfonyl-6-tert-butyl-2-(2,4,6-trimethylphenoxy)pyridine-3-carboxamide]",+++ (“+++” means <3 uM)
5,"COc1cc(-c2ccc(C(=O)NS(=O)(=O)c3ccc[nH]c3=O)c(Oc3c(C)cc(C)cc3C)n2)ccc1F [Compound 624, 6-(4-fluoro-3-methoxy-phenyl)-N-[(2-oxo-1H-pyridin-3-yl)sulfonyl]-2-(2,4,6-trimethylphenoxy)pyridine-3-carboxamide]",++ (“++” means between 3 uM and 10 uM)
6,"CC1CN(c2nc(-c3ccc(F)cc3)ccc2C(=O)NS(=O)(=O)c2cccc(N)n2)C(C)(C)C1 (stereo not shown) [Compound 712, N-[(6-amino-2-pyridyl)sulfonyl]-6-(4-fluorophenyl)-2-(2,2,4-trimethylpyrrolidin-1-yl)pyridine-3-carboxamide]",+++ (“+++” means <3 uM)
7,"Cc1cccc(C)c1Cn1nc(-c2cccc(OC(F)(F)F)c2)cc1C(=O)NS(=O)(=O)c1ccccc1 [Compound 225, N-(benzenesulfonyl)-2-[(2,6-dimethylphenyl)methyl]-5-[3-(trifluoromethoxy)phenyl]pyrazole-3-carboxamide]",+++ (“+++” means <3 uM)
8,"COc1ncc(-c2ccc(C(=O)NS(=O)(=O)c3cccc(N)n3)c(Oc3c(C)cc(C)cc3C)n2)cc1C [Compound 705, N-[(6-amino-2-pyridyl)sulfonyl]-6-(6-methoxy-5-methyl-3-pyridyl)-2-(2,4,6-trimethylphenoxy)pyridine-3-carboxamide]",+++ (“+++” means <3 uM)
9,"CC(C)(C)c1ccc(C(=O)NS(=O)(=O)c2cccc(N)n2)c(N2CCCCC2)n1 [Compound 571, N-[(6-amino-2-pyridyl)sulfonyl]-6-tert-butyl-2-(1-piperidyl)pyridine-3-carboxamide]",++ (“++” means between 3 uM and 10 uM)
10,"Cc1cccc(C)c1Cn1nc(C(C)(C)C)cc1C(=O)NS(=O)(=O)c1ccccc1N [Compound 88, N-(2-aminophenyl)sulfonyl-5-tert-butyl-2-[(2,6-dimethylphenyl)methyl]pyrazole-3-carboxamide]",+++ (“+++” means <3 uM)
11,"Cc1cc(C)c(Oc2nc(-c3ccc(F)c4c3OCO4)ccc2C(=O)NS(=O)(=O)c2cccc(N)n2)c(C)c1 [Compound 345, N-[(6-amino-2-pyridyl)sulfonyl]-6-(7-fluoro-1,3-benzodioxol-4-yl)-2-(2,4,6-trimethylphenoxy)pyridine-3-carboxamide]",+++ (“+++” means <3 uM)
12,"Cc1cc(C)c(Oc2nc(C(C)(C)C)ccc2C(=O)NS(=O)(=O)c2cc[nH]c(=O)c2)c(C)c1 [Compound 113, 6-tert-butyl-N-[(2-oxo-1H-pyridin-4-yl)sulfonyl]-2-(2,4,6-trimethylphenoxy)pyridine-3-carboxamide]",++ (“++” means between 3 uM and 10 uM)
13,"Cc1cc(C)c(Cc2ccc(C(C)(C)C)nc2C(=O)NS(=O)(=O)c2ccccc2)c(C)c1 [Compound 22, N-(benzenesulfonyl)-6-tert-butyl-3-[(2,4,6-trimethylphenyl)methyl]pyridine-2-carboxamide]",+++ (“+++” means <3 uM)
14,"Cc1cc(C)c(Oc2nc3c(cc2C(=O)NS(=O)(=O)c2cccc(N)n2)CCCC3(C)C)c(C)c1 [Compound 182, N-[(6-amino-2-pyridyl)sulfonyl]-8,8-dimethyl-2-(2,4,6-trimethylphenoxy)-6,7-dihydro-5H-quinoline-3-carboxamide]",+++ (“+++” means <3 uM)
15,"COc1ccc(OC)c(-c2cc(C(=O)NS(=O)(=O)c3ccccc3)n(Cc3c(C)cccc3C)n2)c1 [Compound 100, N-(benzenesulfonyl)-5-(2,5-dimethoxyphenyl)-2-[(2,6-dimethylphenyl)methyl]pyrazole-3-carboxamide]",+++ (“+++” means <3 uM)
16,"Cc1cc(C)c(Oc2nc(-c3ccc(F)cc3)ccc2C(=O)NS(=O)(=O)c2ccc[nH]c2=O)c(C)c1 [Compound 561, 6-(4-fluorophenyl)-N-[(2-oxo-1H-pyridin-3-yl)sulfonyl]-2-(2,4,6-trimethylphenoxy)pyridine-3-carboxamide]",+++ (“+++” means <3 uM)
17,"Cc1ccc(-c2cc(C(=O)NS(=O)(=O)c3ccccc3)n(Cc3c(C)cccc3C)n2)cc1 [Compound 199, N-(benzenesulfonyl)-2-[(2,6-dimethylphenyl)methyl]-5-(p-tolyl)pyrazole-3-carboxamide]",+++ (“+++” means <3 uM)
18,"Cc1ccc(Oc2nc(C(C)(C)C)ccc2C(=O)NS(=O)(=O)c2cccc(N)c2)c(C)c1 [Compound 251, N-(3-aminophenyl)sulfonyl-6-tert-butyl-2-(2,4-dimethylphenoxy)pyridine-3-carboxamide]",+++ (“+++” means <3 uM)
19,"Cc1cc(C(=O)NS(=O)(=O)c2cccc(N)n2)c(N2CC(C)CC2(C)C)nc1-c1ccc(F)cc1 (stereo not shown) [Compound 763, N-[(6-amino-2-pyridyl)sulfonyl]-6-(4-fluorophenyl)-5-methyl-2-(2,2,4-trimethylpyrrolidin-1-yl)pyridine-3-carboxamide]",+++ (“+++” means <3 uM)
20,"CC(C)Oc1ccc(-c2ccc(C(=O)NS(=O)(=O)c3cccc(N)n3)c(N3CC4CCC3C4)n2)cn1 (stereo not shown) [Compound 521, N-[(6-amino-2-pyridyl)sulfonyl]-2-(3-azabicyclo[2.2.1]heptan-3-yl)-6-(6-isopropoxy-3-pyridyl)pyridine-3-carboxamide]",++ (“++” means between 3 uM and 10 uM)
